Measurements as given in publication PMC8396812, “Aphid Odorant-Binding Protein 9 Is Narrowly Tuned to Linear Alcohols and Aldehydes of Sixteen Carbon Atoms” (Insects, 2021).
pKd: −log10 of the molar value.

What follows are compounds tested against T1, ApisOBP9 (Acyrthosiphon pisum, UniProt A0A8R1TD77) (assay: biochemical). Conditions: read-out: ApisOBP9-WT.
T1 construct: pET30, E. coli, N-terminal His-tag removed with enterokinase
T1 sequence (A0A8R1TD77 25-165): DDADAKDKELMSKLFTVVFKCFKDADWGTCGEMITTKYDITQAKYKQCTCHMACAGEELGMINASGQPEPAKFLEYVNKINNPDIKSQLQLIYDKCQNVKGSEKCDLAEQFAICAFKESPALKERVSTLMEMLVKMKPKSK
Parameters: competitive displacement of 1-NPN fluorescence from recombinant OBP9, Kd calculated from IC50
Experimental: Affinity constants were evaluated by the competitive fluorescent method, using a PerkinElmer FL 6500 spectrofluorometer in a right-angle configuration at room temperature and quartz cuvettes with a 1 cm path. The fluorescent probe N-phenyl-1-naphthylamine (1-NPN) was excited at 337 nm, and emission spectra were recorded between 380 and 450 nm. Binding of 1-NPN was evaluated by adding aliquots of a 1 mM methanol solution to reach final concentrations of 2–16 μM, to a 2 μM solution of the protein in 50 mM Tris-HCl buffer, pH 7.4. Intensity values were recorded at the peak maximum, around 412 nm. The dissociation constant of the complex protein/1-NPN was calculated using Prism software (https://www.graphpad.com/scientific-software/prism/, accessed on 10 February 2021). The affinities of other ligands were evaluated in competitive binding assays by adding aliquots of 1 mM methanol solutions of each ligand to final concentration values of 2 to 16 μM, to a mixture of the protein and 1-NPN, both at the concentration of 2 μM in 50 mM Tris-HCl buffer, pH 7.4. Dissociation constants of ligands were calculated from the corresponding [IC]50 values (the concentration of each ligand halving the initial value of fluorescence), using the equation:KD = [IC]50/1 + [1-NPN]/K1-NPN where [1-NPN] is the concentration of free 1-NPN, and K1-NPN the dissociation constant of the complex protein/1-NPN. All results of the binding experiments are reported in Figure 2 and in Supplementary Figures S1–S4, including those performed on a mutant (Lys37Leu), designed on the results obtained with the wild-type ApisOBP9. First, we measured the affinity of the protein to the fluorescent probe N-phenyl-1-naphthylamine (1-NPN), the most widely used with insect OBPs.
Work on `CCCCCCCCCCCCCCO` [1-Tetradecanol] yielded a pKd of 5.47.
`CCCCCC/C=C\CCCCCCCC=O` [Z9-hexadecenal] was tested, and the pKd was 5.84.
Work on `CC1=C(C=O)C(C)(C)CC=C1` [safranal] yielded a pKd of 4.94.
In the case of `CCCCCCCCCC(=O)O` [Decanoic acid], the pKd was 4.84.
With `CCCC/C=C\CCCCCCCCCCCC=O` [(Z)-13-Octadecenal] the pKd was 5.64.
`CCCC/C=C\CCCCCCCCCC=O` [Z11-hexadecenal] gave a pKd of 5.94.
For `CCCC/C=C\CCCCCCOC(C)=O` [(Z)-7-Dodecenyl acetate], the pKd was 5.86.
Compound `CCCCCCCCCCCCO` [1-Dodecanol] has a pKd of 5.42.
`CCCCCCCCCCCCCCCCO` [1-hexadecanol] showed a pKd of 5.72.
Compound `COc1cc(/C=C/C=O)ccc1O` [coniferyl aldehyde] has a pKd of 5.10.
Work on `CCCC/C=C\CCCCCCCCCCO` [Z11-1-hexadecenol] yielded a pKd of 5.86.
Compound `CCCC/C=C\CCCCCCCC=O` [(Z)-9-Tetradecenal] has a pKd of 5.27.

The compounds below were run against T1, ApisOBP9 (assay: competitive displacement of 1-NPN fluorescence). Conditions: 2 μM protein, 2 μM 1-NPN, 50 mM Tris-HCl pH 7.4, room temperature.
Type: binding
In the case of `CC1=C(C=O)C(C)(C)CC=C1` [safranal], the KD was “with only coniferyl aldehyde and safranal showing moderate affinities”.
For `C=CC(=C)CC/C=C(\C)CCC=C(C)C` [(E)-β-farnesene], the KD was “in our hands, ApisOBP9 showed some affinity to EBF”.
With `COc1cc(/C=C/C=O)ccc1O` [coniferyl aldehyde] the KD was “with only coniferyl aldehyde and safranal showing moderate affinities”.
